Patent US20220016196A1, “Aloe Based Compositions Comprising Polysaccharides and Polyphenols for Regulation of Homeostasis of Immunity” (Unigen, Inc., priority 2020, published 2022)

Tests used:
Type in all cases: in vivo, rat
[1] = tested on: IL-10; assay: LPS-induced acute lung injury, BAL IL-10 ELISA; settings: rats, LPS 10 mg/kg i.t., 24 hours post, oral, 500 mg/kg
Method: (§1) The study was designed to evaluate the direct impact of an Aloe-based composition (UP360) made in the Example 9 in alleviating LPS-induced acute lung injury administered orally at 500 mg/kg and 250 mg/kg. […] In this study, we treated rats with the test materials orally for 7 days before model induction with LPS. On the 8th day, an hour after oral treatment, LPS was instilled intratracheally (i.t.) at 10 mg/kg dissolved in 0.1 mL/100 g PBS to each rat. The normal control rats received the same volume i.t. PBS only.
(§2) We sacrificed surviving animals 24 hours after intratracheal LPS administration to the rats. At necropsy, collected bronchoalveolar lavage (BAL) by intratracheal injection of 1.5 mL PBS into the right lobe followed by gentle aspiration at least 3 times. Pooled recovered fluid, centrifuged at 1500 rpm for 10 min at 4 ° C., and was used to measure cytokines (e.g. IL-6) and pulmonary protein levels. […]
(§3) The presence of IL-10 in undiluted broncho-alveolar lavage (BAL) samples from Example 23 was measured using the Rat IL-10 Quantikine ELISA kit from R&D Systems (product #: R1000) as follows: undiluted BAL was added to a microplate coated with IL-10 antibody. […] After developing for 30 minutes at room temperature, a stop solution was added, and the absorbance was read at 450 nm. The concentration of IL-10 was calculated based on the absorbance readings of an IL-10 standard curve.

[2] = tested on: IL-1β; assay: LPS-induced acute lung injury, serum IL-1β ELISA; settings: rats
Method: as §1, §2
as §3, with “IL-1β” for “IL-10”, “rat serum” for “broncho-alveolar lavage (BAL) samples”, “(product#: RLBOO)” for “(product #: R1000)”, “serum” for “BAL”

[3] = tested on: LPS-induced acute lung injury rats; assay: LPS-induced acute lung injury, lung histopathology (H&E)
Method: as §1
We sacrificed surviving animals 24 hours after intratracheal LPS administration to the rats. At necropsy, collected bronchoalveolar lavage (BAL) by intratracheal injection of 1.5 mL PBS into the right lobe followed by gentle aspiration at least 3 times. Pooled recovered fluid, centrifuged at 1500 rpm for 10 min at 4 ° C., and was used to measure cytokines (e.g. IL-6) and pulmonary protein levels. This same right lobe was collected for tissue homogenization from each rat for MIP-2/CINC-3 protein analysis. The left lobe was fixed with formalin and submitted for histopathology evaluation to Nationwide Histology for analysis by a certified pathologist. Serum collected at necropsy was used to measure cytokines such as TNF-α and IL-1β.
The left lobe of the lung was used for the histopathology analysis.

[4] = tested on: TNF-α; assay: LPS-induced acute lung injury, serum TNF-α ELISA; settings: rats
Method: as §1, §2
as §3, with “TNF-α” for “IL-10”, “rat serum” for “broncho-alveolar lavage (BAL) samples”, “rat TNF-α” for “Rat IL-10”, “(product#: RTA00)” for “(product #: R1000)”, “serum” for “BAL”, “a TNF-α” for “an IL-10”

[5] = LPS-induced acute lung injury, BAL total protein (BCA); settings: rats
Method: as §1, §2
The amount of total proteins in the broncho-alveolar lavage (BAL) samples from Example 23 was measured using the Pierce BCA Protein Assay kit from ThermoFisher Scientific (product #: 23225) as follows: BAL was diluted 1:5, mixed with bicinchoninic acid (BCA) reagent in a microplate, and incubated at 37° C. for 30 minutes. Absorbance was read at 580 nm, and protein concentration in BAL was calculated based on the absorbance readings of a bovine serum albumin standard curve.

[6] = tested on: MIP-2/CINC-3; assay: LPS-induced acute lung injury, lung homogenate MIP-2/CINC-3 ELISA; settings: rats
Method: as §1
We sacrificed surviving animals 24 hours after intratracheal LPS administration to the rats. At necropsy, collected bronchoalveolar lavage (BAL) by intratracheal injection of 1.5 mL PBS into the right lobe followed by gentle aspiration at least 3 times. […]
50 μL of each rat lung homogenate sample from Example 23 (10 per group for Vehicle, Sodium Butyrate (SB), UP360 Low dose, UP360 High dose, 7 per group for Control) and 50 μL of assay diluent buffer were added to the wells of a 96-well microplate coated with monoclonal CINC-3 antibody and allowed to bind for 2 hours. […] The absorbance of each well was read at 450 nm (with a 580 nm correction) and compared to a standard curve of CINC-3 in order to approximate the amount of CINC-3 in each rat lung homogenate sample.

[7] = LPS 10 mg/kg i.t., 24 hours post, oral, 500 mg/kg

## CCCC(=O)[O-].[Na+] [Sodium Butyrate]
[1]
  BAL IL-10 level, Mean ± SD: 154.84 ± 159.63 pg/mL
[2]; [7]
  serum IL-1β level, Mean ± SD: 22.58 ± 9.46 pg/mL
[2]; LPS i.t., 500 mg/kg oral
  reduction in serum IL-1β vs vehicle: 65.3%
[3]; score 0-4, 500 mg/kg
  Infiltration of PMC: 2.75 ± 0.78
  Pulmonary Edema: 2.35 ± 0.95
[3]; score 0-4, H&E left lobe, 500 mg/kg
  Overall lung tissue Severity: 3.05 ± 0.42
[4]; LPS 10 mg/kg i.t., 24 hours post, oral 7 days pre-treatment, 500 mg/kg
  serum TNF-α level, Mean ± SD: 3.35 ± 1.73 pg/mL
[4]; LPS i.t., 500 mg/kg oral
  reduction in serum TNF-α level vs vehicle control: 67.9%
[5]; [7]
  BAL protein level, Mean ± SD: 2940.14 ± 2092.32 µg/mL
[5]; LPS i.t., 500 mg/kg oral
  reduction in BAL total proteins vs vehicle: 30.2%
[6]; [7]
  lung homogenate MIP-2/CINC-3 level, Mean ± SD: 464.00 ± 220.32 pg/mL
[6]; LPS i.t., 500 mg/kg oral
  reduction in CINC-3 level vs vehicle: 17.7%
